The values that follow come from PubChem BioAssay AID330 (DTP/NCI, 2004).

The experiment deals with P388 leukemia ip, CD2F1 mice, survival T/C. The experiment in a line: NCI In Vivo Anticancer Drug Screen. Data for tumor model P388 Leukemia (intraperitoneal) in CD2F1 (CDF1) mice. The note with it: endpoint: median survival time, higher = longer survival. A digest of the protocol: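 Mice carrying the transplanted tumor received test compound or vehicle. Survival was recorded in each group, and the value is the treated-group measurement divided by that of the vehicle-treated control group.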

[1] abbreviates: dose: 50.0 mg/kg/injection, schedule: Q01DX005 (ip), vehicle: saline with Tween-80.
Where [2] appears, read: dose: 100.0 mg/kg/injection, schedule: Q01DX005 (ip), vehicle: saline with Tween-80.
[3] abbreviates: dose: 200.0 mg/kg/injection, schedule: Q01DX005 (ip), vehicle: saline with Tween-80.
[4] abbreviates: dose: 50.0 mg/kg/injection, schedule: Q01DX009 (ip), vehicle: Klucel (hydroxypropylcellulose) (HPC).
Where [5] appears, read: dose: 100.0 mg/kg/injection, schedule: Q01DX009 (ip), vehicle: Klucel (hydroxypropylcellulose) (HPC).
The mark [6] stands for this setting: dose: 60.0 mg/kg/injection, schedule: Q01DX005 (ip), vehicle: Klucel (hydroxypropylcellulose) (HPC).
[7] abbreviates: dose: 120.0 mg/kg/injection, schedule: Q01DX005 (ip), vehicle: Klucel (hydroxypropylcellulose) (HPC).
[8] abbreviates: dose: 60.0 mg/kg/injection, schedule: Q01DX005 (ip), vehicle: saline with Tween-80.
The mark [9] stands for this setting: dose: 120.0 mg/kg/injection, schedule: Q01DX005 (ip), vehicle: saline with Tween-80.
Where [10] appears, read: dose: 240.0 mg/kg/injection, schedule: Q01DX005 (ip), vehicle: saline with Tween-80.
[11] abbreviates: dose: 50.0 mg/kg/injection, schedule: Q01DX005 (ip), vehicle: Klucel (hydroxypropylcellulose) (HPC).
Setting [12] is: dose: 100.0 mg/kg/injection, schedule: Q01DX005 (ip), vehicle: Klucel (hydroxypropylcellulose) (HPC).
The mark [13] stands for this setting: dose: 200.0 mg/kg/injection, schedule: Q01DX005 (ip), vehicle: Klucel (hydroxypropylcellulose) (HPC).

Several values for one entry are separate records, joined by “and”; a condition that tells them apart may be missing. Identical values can stand only once. Inconclusive results and toxic doses are left out.

Consider `O=C(C=C(C(F)(F)F)C(F)(F)F)c1cccc([N+](=O)[O-])c1`, for which the T/C is 104 % of control (dose: 6.25 mg/kg/injection, schedule: Q04DX003 (ip), vehicle: saline with Tween-80); 104 % of control (dose: 12.5 mg/kg/injection, schedule: Q04DX003 (ip), vehicle: saline with Tween-80); 100 % of control (dose: 25.0 mg/kg/injection, schedule: Q04DX003 (ip), vehicle: saline with Tween-80).

As to `Cc1ccc(S(=O)(=O)OC(C)c2[nH]c(=O)n(C3CCCO3)c(=O)c2F)cc1` (configuration not stated), the T/C reads like this: under setting [1], 99 % of control; under setting [2], 91 % of control; under setting [3], 93 % of control.

In the case of `CC1=NN(c2cccc(S(=O)(=O)O)c2)C(=O)C1N=Nc1cc(Cl)cc(S(=O)(=O)O)c1O.O.[Cr]` (configuration not stated), the T/C runs as follows: (dose: 50.0 mg/kg/injection, schedule: Q01DX009 (ip), vehicle: saline) 114 % of control; (dose: 100.0 mg/kg/injection, schedule: Q01DX009 (ip), vehicle: saline) 108 % of control; (dose: 200.0 mg/kg/injection, schedule: Q01DX009 (ip), vehicle: saline) 115 % of control.

On to `CCCCCC(CN(C)C)C(O)CCc1ccc(Cl)c(Cl)c1` (configuration not stated), for which the T/C runs as follows: (dose: 25.0 mg/kg/injection, schedule: Q01DX009 (ip), vehicle: Klucel (hydroxypropylcellulose) (HPC)) 106 % of control; under setting [4], 98 % of control; under setting [5], 104 % of control.

Take `CCN(CC)C1=C/CC/C(c2ccccc2)=N/N=C\1c1ccccc1`: the T/C was 89 % of control under setting [6]; 95 % of control under setting [7]; 97 % of control (dose: 240.0 mg/kg/injection, schedule: Q01DX005 (ip), vehicle: Klucel (hydroxypropylcellulose) (HPC)).

As for `CC(=O)OC12CC[N+]3(C)CCCCC3C1=Nc1ccccc12` (configuration not stated), the T/C is 110 % of control (dose: 12.5 mg/kg/injection, schedule: Q01DX009 (ip), vehicle: saline) and 99 % of control (dose: 25.0 mg/kg/injection, schedule: Q01DX009 (ip), vehicle: saline).

For the compound `COc1ccc2c(c1)C13CCCCC1C(C2)N(C)CC3` (configuration not stated), the T/C by setting is: (dose: 12.5 mg/kg/injection, schedule: Q01DX005 (ip), vehicle: saline with Tween-80) 94 % of control; (dose: 25.0 mg/kg/injection, schedule: Q01DX005 (ip), vehicle: saline with Tween-80) 100 % of control; under setting [1], 100 % of control; (dose: 50.0 mg/kg/injection, schedule: Q01DX005 (ip), vehicle: saline) 99 % of control.

For `CC(=O)c1c(-c2ccc(F)cc2)c(-c2ccc(F)cc2)nn(CCO)c1=O`, the T/C runs as follows: under setting [1], 98 % of control; under setting [2], 100 % of control; under setting [3], 98 % of control.

Consider `CN=C(c1ccc(NC(=O)c2ccc(C(=O)Nc3ccc(C(=NC)N4CCOCC4)cc3)cc2)cc1)N1CCOCC1`, for which the T/C runs as follows: (dose: 6.25 mg/kg/injection, schedule: Q01DX005 (ip), vehicle: Klucel (hydroxypropylcellulose) (HPC)) 105 % of control; (dose: 12.5 mg/kg/injection, schedule: Q01DX005 (ip), vehicle: Klucel (hydroxypropylcellulose) (HPC)) 101 % of control.

Consider `O=C(Nc1ccc(Cl)cc1)Nc1nnc2nc(C(C(=O)c3cccc([N+](=O)[O-])c3Cl)c3nc4nnc(NC(=O)Nc5ccc(Cl)cc5)n4[nH]c3=O)c(=O)[nH]n12`, for which the T/C under setting [8] is 110 % of control, the T/C under setting [9] is 101 % of control and the T/C under setting [10] is 95 % of control.

With `CC(=O)Nc1cc2cccnc2sc1=O`, the T/C runs as follows: (dose: 25.0 mg/kg/injection, schedule: Q01DX005 (ip), vehicle: Klucel (hydroxypropylcellulose) (HPC)) 98 % of control; under setting [11], 91 % of control; under setting [12], 89 % of control and 94 % of control; under setting [13], 96 % of control.

With `COc1c(O)cc2oc(-c3ccccc3)c(O)c(=O)c2c1OC`, the T/C was 89 % of control (dose: 25.0 mg/kg/injection, schedule: Q01DX005 (ip), vehicle: Klucel + Tween-80); 95 % of control (dose: 50.0 mg/kg/injection, schedule: Q01DX005 (ip), vehicle: Klucel + Tween-80); 98 % of control (dose: 100.0 mg/kg/injection, schedule: Q01DX005 (ip), vehicle: Klucel + Tween-80); 95 % of control (dose: 200.0 mg/kg/injection, schedule: Q01DX005 (ip), vehicle: Klucel + Tween-80).

As to `CCCCCCCCCCCC(=O)/C=C/c1ccccc1`, the T/C runs as follows: under setting [4], 102 % of control; under setting [5], 93 % of control; (dose: 200.0 mg/kg/injection, schedule: Q01DX009 (ip), vehicle: Klucel (hydroxypropylcellulose) (HPC)) 94 % of control.

On to `O=S(=O)(O)c1ccc(Cl)c(N=N/C=N/Nc2cc(S(=O)(=O)O)ccc2Cl)c1`, for which the T/C is, setting by setting: under setting [11], 100 % of control; under setting [12], 98 % of control; under setting [13], 100 % of control.

Turning to `COc1ccc2n[se]nc2c1`, the T/C runs as follows: under setting [8], 93 % of control; under setting [9], 93 % of control.

For `S=c1nc[nH][nH]1`, the T/C by setting is: (dose: 50.0 mg/kg/injection, schedule: Q01DX009 (ip), vehicle: suspension in saline) 99 % of control; (dose: 100.0 mg/kg/injection, schedule: Q01DX009 (ip), vehicle: suspension in saline) 105 % of control; (dose: 200.0 mg/kg/injection, schedule: Q01DX009 (ip), vehicle: suspension in saline) 106 % of control.

Take `CC(=O)c1cc2cc3c4c(c2oc1=O)CCCN4CCC3`: the T/C runs as follows: under setting [6], 104 % of control; under setting [7], 112 % of control.

Regarding `CC[As](CC)SC1CCC2(C)C(=CCC3C4CCC(=O)C4(C)CCC32)C1` (configuration not stated), the T/C reads like this: (dose: 12.5 mg/kg/injection, schedule: Q01DX009 (ip), vehicle: distilled water + Tween-80) 105 % of control; (dose: 25.0 mg/kg/injection, schedule: Q01DX009 (ip), vehicle: distilled water + Tween-80) 100 % of control and 117 % of control; (dose: 50.0 mg/kg/injection, schedule: Q01DX009 (ip), vehicle: distilled water + Tween-80) 120 % of control; (dose: 100.0 mg/kg/injection, schedule: Q01DX009 (ip), vehicle: distilled water + Tween-80) 156 % of control.

On to `C=CCNC(=O)/C=C\C(=O)O`, for which the T/C was 98 % of control (dose: 37.5 mg/kg/injection, schedule: Q01DX009 (ip), vehicle: saline with Tween-80); 94 % of control (dose: 75.0 mg/kg/injection, schedule: Q01DX009 (ip), vehicle: saline with Tween-80); 94 % of control (dose: 150.0 mg/kg/injection, schedule: Q01DX009 (ip), vehicle: saline with Tween-80); 100 % of control (dose: 300.0 mg/kg/injection, schedule: Q01DX009 (ip), vehicle: saline with Tween-80).

`CCC(O)C1(C#Cc2ccccc2)Sc2ccccc2N1C` (configuration not stated): the T/C runs as follows: under setting [8], 107 % of control; under setting [9], 110 % of control; under setting [10], 110 % of control.

For `O=C1c2cscc2C(=O)c2cscc21`, the T/C reads like this: (dose: 12.5 mg/kg/injection, schedule: Q01DX009 (ip), vehicle: saline with Tween-80) 98 % of control; (dose: 25.0 mg/kg/injection, schedule: Q01DX009 (ip), vehicle: saline with Tween-80) 100 % of control; (dose: 50.0 mg/kg/injection, schedule: Q01DX009 (ip), vehicle: saline with Tween-80) 96 % of control; (dose: 100.0 mg/kg/injection, schedule: Q01DX009 (ip), vehicle: saline with Tween-80) 94 % of control.

Take `CC([CH2][Sn]([CH3])([Cl])[c]1ccccc1)c1ccccc1` (configuration not stated): the T/C (dose: 12.5 mg/kg/injection, schedule: Q04DX003 (ip), vehicle: saline) was 98 % of control; the T/C (dose: 25.0 mg/kg/injection, schedule: Q04DX003 (ip), vehicle: saline) was 103 % of control; the T/C (dose: 50.0 mg/kg/injection, schedule: Q04DX003 (ip), vehicle: saline) is 94 % of control; the T/C (dose: 100.0 mg/kg/injection, schedule: Q04DX003 (ip), vehicle: saline with Tween-80) was 98 % of control.

Turning to `CN1C(=O)CC(NC(=O)CNC(=O)c2ccccc2)C1=O` (configuration not stated), the T/C is, setting by setting: under setting [8], 97 % of control; under setting [9], 94 % of control; under setting [10], 90 % of control.
